Assay results taken from US9388146B2, “Crystalline forms of tyrosine kinase inhibitors and their salts” (Purdue Pharma L.P., priority 2013, dated 2016).
Read-outs that look alike come from different tables or passages of the source.

Tests used:
CCI rats = assay: Chronic constriction injury (CCI) model of neuropathic pain in rat; assay type: in vivo; conditions: for observed side effects (drowsiness, motor incoordination, abnormality): oral dosing
Source text: The CCI model is one of the most commonly used mono-neuropathic pain model firstly described in details by Bennett and Xie (Bennett G J, Xie Y K. Pain. 1988; 33(1):87-107). It mimics important clinical chronic pain symptoms such as mechanical allodynia and thermal hyperalgesia. Chronic constriction injury of the sciatic nerve was produced by tying four loose ligatures around the left sciatic nerve according to the method of Bennett and Xie. […] Calibrated von Frey filaments were used to determine the lowest mechanical (tactile) threshold required to evoke a brisk paw withdrawal reflex in the rat hindpaws. Rats were allowed to acclimatize in wire mesh cages for 15-20 min prior to von Frey testing. Assessment of paw withdrawal thresholds (PWTs) using von Frey filaments was undertaken prior to CCI-surgery (pre-surgery baseline on day 0). Before the drug dosing on day 14, the pre-dose baseline was recorded for each rat. […] Drug-naïve CCI-rats (n=4-6 per group) were used. The oral (PO) gavage vehicle was either 10% (w/v) Povidone K25 in water for PO dosing, or 18% (w/v) CrosPovidone in water for PO dosing, or 0.5% CMC-Na/0.1% Tween 80 in distilled water for PO dosing. The positive control gabapentin was dissolved in the vehicle and orally given at 100 mg/kg (by oral gavage). Test article was dissolved or suspended in the vehicle and orally given at 25, 50, 100 and 150 mg/kg. Each CCI-rat was administered a single oral dose of test article, gabapentin or vehicle control, 2 hours before assessment of PWT.

[1] = Accelerated stability tests by XRPD and Raman; assay type: physicochemical; conditions: 1 week
Experimental: Approximately 2 mg of sample was gently compressed on the XRPD zero back ground single obliquely cut silica sample holder. The sample was then loaded into a D/MAX 2200 X-ray powder diffractometer (Rigaku) or a Philips X-Pert MPD diffractometer and analyzed using the following experimental conditions (Tube anode: Cu; Generator tension: 40 kV; Tube current: 40 mA; Wavelength alpha1: 1.54056 Å; Wavelength alpha2: 1.5444 Å; Start angle [2 theta]: 5; End angle [2 theta]: 50; and Continuous scan). For suspected novel forms a slightly slower scan speed was used over a range of 4-40° 2θ.
Samples were analyzed by a Nicolet Almega XR Dispersive Raman Microscope for its Raman spectrum using the following conditions (Exposure Time: 1.0 s; Acquisition No: 10; Pinhole Size: 25, 50 or 100 μm; Wavelength range: 2000˜300 cm^−1 (single grating); Laser: […] 100% power; Objective: 20×/0.40 or 50×/0.75 (magnifier/numerical aperture number)). Then the measured Raman spectra were corrected by baseline subtraction using the software OMNIC™ v7.3.

[2] = Rat pharmacokinetics (plasma, LC-MS/MS, non-compartmental analysis); assay type: in vivo; conditions: for bioavailability: oral
Experimental: (§1) Compound I was dosed to nonfasted male CD IGS rats (weighting 180-250 g, Charles River Laboratories) by single intravenous (IV, n=3/group) or oral gavage (PO, n=4/group, including control rat group for drug-free blood and brain collection) administration at a nominal dose levels of 3 mg/kg (IV) or 5 mg/kg (IV) and 10, 50, 100 mg/kg (PO) respectively. Compound was formulated in either DMSO/Solutol® HS 15/phosphate buffered saline, pH 7.4 (PBS) for both IV and PO dosing, or 10% (w/v) Povidone K12 in water for IV dosing or 10% (w/v) Povidone K25 in water for PO dosing, or 18% (w/v) CrosPovidone in water for PO dosing. An intravenous profile was obtained by taking serial or terminal blood samples at 3, 10, 30, 60, 120, 240, 360, 1440 min post dose. An oral profile was obtained by taking serial or terminal blood samples at 10, 30, 60, 120, 240, 360, 480, 1440 min post dose.
(§2) Animals were sedated under general inhalant anesthesia (3% isoflurane) for blood collection by cardiac puncture. Blood aliquots (300-400 μL) were collected in tubes coated with lithium heparin, mixed gently, then kept on ice and centrifuged at 2,500×g for 15 minutes at 4° C., within 1 hour of collection. For control animals, blood was collected by cardiac puncture. The plasma was then harvested and kept frozen at −20° C. until further processing. Plasma Sample Collection from Cannulated Rats. Blood collection was carried out from the jugular vein catheter. Blood aliquots (300-400 μL) were collected in tubes coated with lithium heparin, mixed gently, then kept on ice and centrifuged at 2,500×g for 15 minutes at 4° C., within 1 hour of collection. For control animals, blood was collected by cardiac puncture. The plasma was then harvested and kept frozen at −20° C. until further processing.
(§3) Plasma and brain samples were subjected to quantitative analysis by LC-MS/MS using compound-specific mass transitions. Drug concentration-time profiles were generated and non-compartmental PK analysis (using WinNonlin) used to generate estimates of half-life (T1/2), clearance, volume of distribution (Vss), and oral bioavailability (F %) (Gabriesson, J. and Weiner, D. Pharmacokinetic and Pharmacodynamic Data Analysis: Concepts and Applications. Swedish Pharmaceutical Press. 1997). The concentrations of the test compound in brain (ng/g brain tissue) and in plasma (ng/mL) as well as the ratio of the brain concentration and the plasma concentration at each time point were determined and reported.

SNL rats = assay: Spinal nerve ligation (SNL) mono-neuropathic pain model in rat; assay type: in vivo; conditions: oral administration
Experimental: The surgical procedure will be performed according to the method firstly described by Kim and Chung (Kim S H, Chung J M. Pain. 1992; 50(3):355-63.). This procedure will result in tactile allodynia in the left hindpaw. […] The dose-response anti-allodynia effects of test compound: on day 14 after surgery, rats were treated with test article at one of four doses, vehicle or positive control by oral gavage, and PWT was determined by calibrated von Frey filaments at time points of 0 (right before the drug dosing, Pre-Dose Baseline), 0.5, 1, 2, 4 and 6 hr. The anti-allodynia effects of repeated administration of test article: Administration of test article was started on day 7 after surgery, once a day for 7 days. PWT was determined by calibrated von Frey filaments, 2 hour after test article dosing each day. After 7 days dosing, the measurement were continued, every other day without compound dosing for another 7 days. PWT was determined at the time points as given above.

[3] = Rat brain and plasma concentration after IV dosing; assay type: in vivo; conditions: male, CD IGS, dose 3 and 5 mg/kg
Experimental: as §1, §2
Immediately after the blood sampling, rats were decapitated and the whole brains were quickly removed, rinsed with cold saline (0.9% NaCl, g/mL), surface vasculature ruptured, blotted with dry gauze, weighed and kept on ice until further processing within 1 hour of collection. Each brain was homogenized in 3 mL cold phosphate-buffered saline, pH 7.4 for 10 seconds on ice using Power Gen 125. The brain homogenate from each brain was then stored at −20° C. until further processing.
as §3

[4] = system: CFA-induced rat inflammatory pain; assay: Rat CFA-induced inflammatory pain model; assay type: in vivo; conditions: 50 μL of 1 mM s.c. into paw 3 hours after CFA, FIG. 1
Experimental: Hyperalgesia was induced by subcutaneously injecting 50 μL of CFA (Sigma-Aldrich, St. Louis, Mo., USA) into the plantar surface of the left hind paw of the rats using a 30-gauge hypodermic needle under sevoflurane anesthesia. The classical signs of inflammation, including edema and redness, for up the last day of tests were recorded. To assess the effect of test article on CFA-induced inflammatory pain, the rats were anesthetized with sevoflurane 3 hours after CFA injection and then injected 50 μL of either 1 mM test article (n=6) or Saline (n=4) subcutaneously (S.C.) into the same site as the CFA injection, using a 30-gauge hypodermic needle under sevoflurane anesthesia, according to published method (Ueda K., et al, J Pharmacol. Sci., 2010; 112(4):438-43). Paw withdrawal latencies (thermal hyperalgesia) are measured before and at […] 2, 4, and 7 days after CFA injection. Mechanical thresholds were also measured in the same way with either Formula 1 compound (n=6) or Saline (n=4) at similar different time points (for example, 1, 3 hour and 3 days). The noxious heat and mechanical thresholds were separately measured in each group of rats. The threshold was measured 3-5 times in each rat and then averaged. Stimulus interval was 5 min.

TrkB = TrkB (Homo sapiens, UniProt Q16620); assay: PathHunter whole cell functional assay, BDNF stimulated TrkB activation; assay type: cell-based; conditions: triplicate
Chain of TrkB (Q16620 32-822, species assumed): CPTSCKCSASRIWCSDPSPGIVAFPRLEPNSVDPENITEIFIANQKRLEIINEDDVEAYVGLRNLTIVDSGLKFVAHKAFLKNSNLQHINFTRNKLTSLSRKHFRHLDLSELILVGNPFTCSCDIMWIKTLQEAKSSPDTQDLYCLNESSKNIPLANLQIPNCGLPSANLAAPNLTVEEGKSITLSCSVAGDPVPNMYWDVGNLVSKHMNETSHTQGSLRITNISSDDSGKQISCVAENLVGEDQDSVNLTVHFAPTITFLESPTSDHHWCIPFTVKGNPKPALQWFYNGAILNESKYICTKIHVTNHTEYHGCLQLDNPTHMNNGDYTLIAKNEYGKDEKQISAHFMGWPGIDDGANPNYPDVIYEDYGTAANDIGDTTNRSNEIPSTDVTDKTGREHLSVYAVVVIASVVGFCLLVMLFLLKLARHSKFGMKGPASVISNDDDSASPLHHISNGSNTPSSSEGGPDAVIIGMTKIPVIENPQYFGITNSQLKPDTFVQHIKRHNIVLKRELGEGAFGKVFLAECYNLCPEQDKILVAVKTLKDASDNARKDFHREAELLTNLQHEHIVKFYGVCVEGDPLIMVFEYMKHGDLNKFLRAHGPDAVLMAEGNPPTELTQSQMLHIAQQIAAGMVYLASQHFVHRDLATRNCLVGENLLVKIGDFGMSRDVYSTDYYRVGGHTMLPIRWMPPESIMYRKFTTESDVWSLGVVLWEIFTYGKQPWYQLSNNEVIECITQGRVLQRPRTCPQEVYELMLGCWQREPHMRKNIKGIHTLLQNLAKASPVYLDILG

TrkC = TrkC (Homo sapiens, UniProt Q16288); assay: PathHunter whole cell functional assay, NT3 stimulated TrkC activation; assay type: cell-based; conditions: triplicate
Chain of TrkC (Q16288 32-839, species assumed): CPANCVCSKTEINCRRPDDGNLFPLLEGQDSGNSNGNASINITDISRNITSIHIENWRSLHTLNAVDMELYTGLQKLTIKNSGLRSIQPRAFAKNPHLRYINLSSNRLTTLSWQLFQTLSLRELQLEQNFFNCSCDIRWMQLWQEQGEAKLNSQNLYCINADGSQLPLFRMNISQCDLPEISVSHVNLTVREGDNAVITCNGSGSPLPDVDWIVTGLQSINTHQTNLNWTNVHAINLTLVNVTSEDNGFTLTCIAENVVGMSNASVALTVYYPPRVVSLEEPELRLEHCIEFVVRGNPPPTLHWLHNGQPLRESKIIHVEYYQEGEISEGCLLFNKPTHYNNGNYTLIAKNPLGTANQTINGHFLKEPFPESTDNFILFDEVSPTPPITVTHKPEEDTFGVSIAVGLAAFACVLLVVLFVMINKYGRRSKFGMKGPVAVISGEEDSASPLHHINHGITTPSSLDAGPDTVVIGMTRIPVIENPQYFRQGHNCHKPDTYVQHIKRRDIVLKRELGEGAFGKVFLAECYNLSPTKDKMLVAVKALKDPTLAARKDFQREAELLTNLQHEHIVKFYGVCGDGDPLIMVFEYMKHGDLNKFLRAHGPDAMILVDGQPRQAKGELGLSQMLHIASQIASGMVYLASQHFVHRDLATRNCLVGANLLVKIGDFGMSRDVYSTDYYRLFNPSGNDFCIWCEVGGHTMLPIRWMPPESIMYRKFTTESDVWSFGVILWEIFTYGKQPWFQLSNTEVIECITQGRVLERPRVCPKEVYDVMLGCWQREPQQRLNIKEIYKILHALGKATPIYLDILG

[5] = male, CD IGS, plasma, IV, 3 mg/kg, mean
[6] = male, CD IGS, plasma, PO, 100 mg/kg, mean

NCC1(CC(=O)O)CCCCC1 [gabapentin, reference compound]
observed side effects (drowsiness, motor incoordination, abnormality) (CCI rats): drowsiness or motor incoordination

O=C([O-])c1ccc(Nc2cc(N3CCN(C4CCCCC4)CC3)c3noc4c3c2C(=O)c2ccccc2-4)cc1.[Na+] [Compound I, Sodium 4-((3-(4-cyclohexylpiperazin-1-yl)-6-oxo-6H-anthra[1,9-cd]isoxazol-5-yl)amino)benzoate]
stability as measured by XRPD and Raman ([1]; 40° C./75% RH): no instability
stability as measured by XRPD and Raman ([1]; 80° C.): no instability
observed side effects (drowsiness, motor incoordination, abnormality) (CCI rats): no such effect or other abnormality was observed
more effective in suppressing mechanical allodynia compared to gabapentin (CCI rats; same oral dose of 100 mg/kg): about 100%
effect on mechanical allodynia (PWT, von Frey) (CCI rats; single oral dose 25, 50, 100 and 150 mg/kg, 2 hours before assessment, FIG. 2): significantly reduced mechanical allodynia
F ([2]; PO, 100 mg/kg, mean): ~100%
clearance [2, 5]: 4 mL/min/kg
half-life [2, 5]: 1.08 h
Vd ([2]; male, CD IGS, plasma, IV, 3 mg/kg, mean, read-out: Vss): 0.287 L/kg
Cmax [2, 6]: 66000 ng/mL
half-life [2, 6]: 2.07 h
bioavailability ([2]; male, CD IGS, plasma): 90 to 100%
effect on mechanical allodynia (PWT, von Frey) (SNL rats): significantly reduced mechanical allodynia
concentration at 30 min ([3]; brain, 30 min, read-out: Brain concentration): 153 ng/g
concentration at 60 min ([3]; brain, 60 min, read-out: Brain concentration): 120 ng/g
concentration at 180 min ([3]; brain, 180 min, read-out: Brain concentration): 23 ng/g
Kp at 30 min ([3]; brain/plasma, 30 min, read-out: Ratio Brain/Plasma): 0.014
Kp at 60 min ([3]; brain/plasma, 60 min, read-out: Ratio Brain/Plasma): 0.018
Kp at 180 min ([3]; brain/plasma, 180 min, read-out: Ratio Brain/Plasma): 0.019
concentration at 30 min ([3]; plasma, 30 min, read-out: Plasma Concentration): 11300 ng/mL
concentration at 60 min ([3]; plasma, 60 min, read-out: Plasma Concentration): 8160 ng/mL
concentration at 180 min ([3]; plasma, 180 min, read-out: Plasma Concentration): 1830 ng/mL
analgesic effect (thermal hyperalgesia / mechanical threshold) [4]: efficacious in relieving the pain

O=C(O)c1ccc(Nc2cc(N3CCN(C4CCCCC4)CC3)c3noc4c3c2C(=O)c2ccccc2-4)cc1 [Compound C]
IC50 (TrkB): > 10 µM
IC50 (TrkC): > 10 µM

O=C(O)c1ccc(Nc2cc(N3CCN(C4CCCCC4)CC3)c3noc4c3c2C(=O)c2ccccc2-4)cc1 [Compound 701, 4-((3-(4-cyclohexylpiperazin-1-yl)-6-oxo-6H-anthra[1,9-cd]isoxazol-5-yl)amino)benzoic acid]
bioavailability ([2]; male, CD IGS, plasma): < 20%

O=C([O-])c1ccc(Nc2cc(N3CCN(C4CCCCC4)CC3)c3noc4c3c2C(=O)c2ccccc2-4)cc1.[Na+] [Form A, Sodium 4-((3-(4-cyclohexylpiperazin-1-yl)-6-oxo-6H-anthra[1,9-cd]isoxazol-5-yl)amino)benzoate]
stability of the polymorphic form ([1]; 40° C./75% RH and 80° C.): stable polymorphic form
